According to PMC10447463, “Data-mining unveils structure–property–activity correlation of viral infectivity enhancing self-assembling peptides” (Nature Communications, 2023):
Where two headings read alike, the source gives them in different places.

Experiments:
[1] = test system: HIV-1 infection of TZM-bl cells; experiment: HIV-1 infectivity enhancement assay, β-galactosidase luminescence; assay type: cell-based; details: for Rel-EFC: infection relative to EF-C (QCKIKQIINMWQ = 1); for Log10 Infection Rel EFC: log10 of infection relative to EF-C; for Log Infectivity: Log10 infection relative to EF-C, asymmetric std dev errors; for Log10 Infection Rel EF-C: HIV-1 infection of TZM-bl cells; for Log10 of Rel to EFC (Feb2021): Log10 of infection relative to EF-C; for Abs. Inf.: β-galactosidase luminescence
[2] = assay type: physicochemical; details: for ThT Cat. / ThT-Fluorescence (categorical): ThT-active if fluorescence at least twice the control
Procedure, shortened: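 Fibrils (1 mg/mL solution) were mixed with 50 µM ThT in PBS for 15 min at RT, and fluorescence was read at λex 440/λem 488 nm against a PBS blank, as a triplicate mean ± SD. Zeta potential came from electrophoretic mobility (Smoluchowski) after 1 d aggregation at 1 mg/mL in PBS pH 7.4, diluted into 1 mM KCl.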

[3] = Conversion rate (CR) assay with fluorescamine; assay type: physicochemical; set-up: key to CR: % = 100−100×filtrate/original fluorescence intensity; details: conversion rate, fluorescamine assay; for CR / %: Fig. S7 panel B
Description: For ATR FT–IR spectroscopy measurements, 200 µL of the respective 1 mg/mL PNF solution was lyophilized and the resulting powder used for measurement. All spectra were recorded on a Bruker Tensor 27 spectrometer with a diamond crystal as ATR element (PIKE MiracleTM, spectral resolution 2 cm^-1). Every sample was measured with 64 scans. Data were analyzed with OriginLab software and calculation of β–sheet content was conducted according to a previous report. TEM. For TEM measurements 5 µL of PNF fibrils (1 mg/mL) were placed on copper grids coated with carbon and formvar layer (300 mesh, Plano GmbH). After 10 min incubation time, the grids were staining with 4% uranyl acetate solution for 2.5 min and washed with water. Measurements were performed on a Jeol 1400 electron microscope with 120 kV acceleration voltage. CR Assay. For the determination of the amount of peptide monomer converting into nanostructures the amine reactive dye fluorescamine was used analogous to a previous reported protocol. Briefly, 100 µL of the preformed PNF solution was centrifuged in a Vivaspin 500 tube (3 kDa MWCO) to separate fibers from free peptide monomer (16200 x g, 4 °C, 45 min). The filtrate and 100 μL of the non-filtered PNF sample were lyophilized and dissolved in 30 μL DMSO. 10 μL of the filtrate and non-filtered DMSO samples were submitted in a black UV Star® 384 microliter well–plates (Greiner bio–one) and 3 μL of the fluorescamine solution (10 mg/mL, DMSO) was added to measure the fluorescence enhancement. After 20 min of incubation at RT, fluorescence was recorded on an Infinite® M1000 PRO microplate reader (Tecan) at λem = 470 nm upon excitation at λex = 365 nm with 10 nm bandwidths and multiple reads per well (3×3). Measurements were repeated in triplicates and averaged with standard deviation. All values were calculated as n-fold fluorescence enhancement (DMSO only as a reference was set to 1). The conversion rate CR was defined according to the equation Eq. (3).3 CR=100−100×fluorescenceintensityfiltrate/fluorescenceintensityoriginal[%]

[4] = Fig. S7 panel B (plotted against CR), rounded to two decimals, TZM-bl cells
[5] = Log10 of infection rate relative to EF-C, Figure 3A source data
[6] = infection rate relative to EF-C, log10, data of Figure 2D
[7] = infection rate relative to EF-C, log10, source data of Figure 2C
[8] = ThT fluorescence category, 1 if Rel. ThT >2
[9] = Fig. S7 panel A (plotted against β-sheet content), TZM-bl cells

Substance	Rel-EFC ([1]; 1.3 µM peptide)	Log10 Infection Rel EFC ([1]; 1.3 µM peptide)	Log Infectivity [1, 4]	Log10 Infection Rel EF-C [1, 5]	Log10 Infection Rel EF-C [1, 6]	Log10 Infection Rel EF-C [1, 7]	Log10 of Rel to EFC (Feb2021) ([1]; all peptides of FigS16)	ThT Cat, ([2]; ThT category, 1 if Rel. ThT >2)	ThT Cat. [2, 8]	ThT Cat. / ThT-Fluorescence (categorical) [2]	CR / % [3]	CR [3]	Log Infectivity [1, 9]	Tht category (> 2 to blank = +) ([2]; Fig S10 panel D)	ThT Cat. ([2]; Fig S10 panel E)	further results
RGDKIKIQINMC	1,07	0,03	0.03	0.03	0.02911	0.02911	0.03	0 (ThT-inactive (N-Fold <2))	0 (ThT-inactive (N-Fold <2))	0 (ThT-inactive (N-Fold <2))	60%	60	–	–	–	–
EIEIQINMWQ	0,13	-0,88	-0.88	-0.88	-0.881	-0.881	-0.88	1 (ThT. Cat is 1, if Rel. ThT >2)	–	1 (ThT. Cat is 1, if Rel. ThT >2)	89.9%	89.92	-0.881	1 (ThT. Cat is 1, if Rel. ThT >2)	1 (ThT. Cat is 1, if Rel. ThT >2)	infectivity enhancement relative to EF-C ([1]; 1.3 µM peptide): 13%; Log10 of Rel to EFC (Feb2021) ([1]; second listing, peptides with TEM 2cat 0): -0.88; Abs. Inf. ([1]; absolute HIV-1 infection signal, TZM-bl cells): 2137; ThT Cat. ([2]; ThT category, 1 if Rel. ThT >2): 1 (ThT. Cat is 1, if Rel. ThT >2)
CKIKQIINMWQ	1,24	0,09	0.09	0.09	0.09484	0.09484	0.09	1 (ThT. Cat is 1, if Rel. ThT >2)	1 (ThT. Cat is 1, if Rel. ThT >2)	1 (ThT. Cat is 1, if Rel. ThT >2)	50%	50	0.09484	1 (ThT. Cat is 1, if Rel. ThT >2)	1 (ThT. Cat is 1, if Rel. ThT >2)	–
RGDSGGGGGGKIKIQIC	0,87	-0,06	-0.06	-0.06	-0.0628	-0.0628	-0.06	1 (ThT. Cat is 1, if Rel. ThT >2)	1 (ThT. Cat is 1, if Rel. ThT >2)	1 (ThT. Cat is 1, if Rel. ThT >2)	54.7%	54.68	-0.0628	1 (ThT. Cat is 1, if Rel. ThT >2)	1 (ThT. Cat is 1, if Rel. ThT >2)	–
CKIKQII	0,04	-1,38	-1.38	-1.38	-1.379	-1.379	–	1 (ThT. Cat is 1, if Rel. ThT >2)	1 (ThT. Cat is 1, if Rel. ThT >2)	1 (ThT. Cat is 1, if Rel. ThT >2)	55%	55	-1.379	1 (ThT. Cat is 1, if Rel. ThT >2)	1 (ThT. Cat is 1, if Rel. ThT >2)	Abs. Inf. / RLU s-1 ([1]; absolute infection rate, peptide 1.3 µM on cells, virus preincubated 10 min with fibrils, read 3 days post infection, mean of triplicate): 796.7 RLU s-1; Abs. Infection at 0.26 µM ([1]; peptide 0.26 µM, mean of triplicate): 430; Tht category (> 2 to blank = +) ([2]; FigS12 panel A): 1 (ThT. Cat is 1, if Rel. ThT >2); ThT Cat, ([2]; FigS12 panel B): 1 (ThT. Cat is 1, if Rel. ThT >2)
RGDSKIKIQIC	0,6	-0,22	-0.22	-0.22	-0.2249	-0.2249	-0.22	1 (ThT. Cat is 1, if Rel. ThT >2)	1 (ThT. Cat is 1, if Rel. ThT >2)	1 (ThT. Cat is 1, if Rel. ThT >2)	43.4%	43.38	-0.2249	1 (ThT. Cat is 1, if Rel. ThT >2)	1 (ThT. Cat is 1, if Rel. ThT >2)	–
QCKFKQFFNMWQ	0,01	-2,18	-0.61	-0.61	-0.6059	-0.61	-0.61	1 (ThT. Cat is 1, if Rel. ThT >2)	–	1 (ThT. Cat is 1, if Rel. ThT >2)	98.7%	98.72	-0.6059	1 (ThT. Cat is 1, if Rel. ThT >2)	1 (ThT. Cat is 1, if Rel. ThT >2)	Abs. Inf. ([1]; absolute infection signal, HIV-1 on TZM-bl cells): 30896.66667; Log10 Inf. rel. to EF-C ([1]; log10 of HIV-1 infection of TZM-bl cells relative to EF-C (EF-C = 0)): -0.6059; ThT Cat. ([2]; ThT category, 1 if Rel. ThT >2): 1 (ThT. Cat is 1, if Rel. ThT >2)
